Measured values taken from US20070161123A1, “DETERMINATION OF CONCENTRATION OF FK778 BY COMPETITIVE IMMUNOASSAY” (priority 2006, published 2007).

Legend:
[1] = humans; cited from earlier work
antibody to FK778 = experiment: Interference of prescription drugs in the […] FK778 competitive chemiluminescent immunoassay; assay type: binding
Protocol: FK778 assays were performed by an […]® instrument, commercially available from Abbott Laboratories, Abbott Park, Ill., according to the following procedure. See also U.S. Pat. Nos. 5,795,784 and 5,856,194, both of which are incorporated herein by reference. A serum sample (10 μL) was diluted with Line Diluent at a ratio of 1 part sample to 20 parts Line Diluent. A portion of the diluted sample (10 μL) was mixed with 90 μL of Conjugate Reagent and 50 μL of Line Diluent. Magnetic Microparticle Reagent (50 μL) and Bihapten Tracer Reagent (50 μL) were added to the foregoing mixture after a period of six (6) seconds. The resulting mixture (250 μL) was incubated for 25 minutes. The microparticles were washed three (3) times with 1 mL of Line Diluent. The magnetic particles were attracted to a magnet at the same time that they were being washed. The washed microparticles were treated with Pretrigger Reagent (100 μL acidic hydrogen peroxide). Finally, the chemiluminescent reaction was triggered by addition of Trigger Reagent (alkaline detergent solution (300 μL)). Measurement of light generated was carried out by means of a photomultiplier tube.
This example illustrates interference with prescription drugs. Interference was tested for 44 of 45 prescription drugs at levels recommended in NCCLS document EP-7P. Interference was tested in the presence of FK778 and absence of FK778 in the sample. Interference was defined as greater than 5 μg/mL (without FK778) or greater than 10% (with FK778). […] Both interferences were expected; fluorescein because of its competition with the FK778-fluorescein bihapten tracer and A77,1726 because of its similarity in structure to FK778.
Fluorescein is used in in vivo diagnostic procedures to measure blood flow in the eye and is not expected to be present in patients undergoing a transplant. 10 Nevertheless, fluorescein was tested more thoroughly to estimate the magnitude of the interference at concentrations lower than 400 μg/mL.
Additional testing was also carried out with A77, 1726 to assess the cross-reactivity of this molecule in the presence and absence of FK778.

Structure (SMILES): C/C(O)=C(\C#N)C(=O)Nc1ccc(C(F)(F)F)cc1 [A77 1726]
- plasma half-life [1]: 15 to 18 days
- % Cross-reactivity A77,1726 (antibody to FK778; A77,1726 50 μg/mL, High FK778): 13%
- A77,1726 measured as FK778 (antibody to FK778; A77,1726 50 μg/mL, High FK778): 152.9 µg/mL
- % Cross-reactivity A77,1726 (antibody to FK778; A77,1726 50 μg/mL, Low FK778): 43%
- A77,1726 measured as FK778 (antibody to FK778; A77,1726 50 μg/mL, Low FK778): 42.3 µg/mL
- % Cross-reactivity A77,1726 (antibody to FK778; A77,1726 50 μg/mL, Med FK778): 24%
- A77,1726 measured as FK778 (antibody to FK778; A77,1726 50 μg/mL, Med FK778): 85 µg/mL
- % Cross-reactivity A77,1726 (antibody to FK778; A77,1726 100 μg/mL, High FK778): 23%
- A77,1726 measured as FK778 (antibody to FK778; A77,1726 100 μg/mL, High FK778): 170.1 µg/mL
- % Cross-reactivity A77,1726 (antibody to FK778; A77,1726 100 μg/mL, Low FK778): 42%
- A77,1726 measured as FK778 (antibody to FK778; A77,1726 100 μg/mL, Low FK778): 62.6 µg/mL
- % Cross-reactivity A77,1726 (antibody to FK778; A77,1726 100 μg/mL, Med FK778): 31%
- A77,1726 measured as FK778 (antibody to FK778; A77,1726 100 μg/mL, Med FK778): 103.4 µg/mL
- % Cross-reactivity A77,1726 (antibody to FK778; A77,1726 200 μg/mL, High FK778): 34%
- A77,1726 measured as FK778 (antibody to FK778; A77,1726 200 μg/mL, High FK778): 209.3 µg/mL
- % Cross-reactivity A77,1726 (antibody to FK778; A77,1726 200 μg/mL, Low FK778): 42%
- A77,1726 measured as FK778 (antibody to FK778; A77,1726 200 μg/mL, Low FK778): 104.8 µg/mL
- % Cross-reactivity A77,1726 (antibody to FK778; A77,1726 200 μg/mL, Med FK778): 37%
- A77,1726 measured as FK778 (antibody to FK778; A77,1726 200 μg/mL, Med FK778): 145.5 µg/mL
- % Cross-reactivity A77,1726 (antibody to FK778; A77,1726 200 μg/mL, Zero FK778): 47%
- A77,1726 measured as FK778 (antibody to FK778; A77,1726 200 μg/mL, Zero FK778): 94.9 µg/mL
- Interference (antibody to FK778; defined as greater than 5 μg/mL (without FK778) or greater than 10% (with FK778)): Interference was observed

Structure (SMILES): C#CCC/C(O)=C(\C#N)C(=O)Nc1ccc(C(F)(F)F)cc1 [FK778]
- plasma half-life compared with A77 1726 [1]: shorter
